Measurements taken from patent publication US20170014386A1, “Treatment of Multidrug-Resistant Nephrotic Syndrome (MDR-NS) in Children” (AbbVie, Inc., priority 2015, published 2017).
“Also recorded” adds a separate entry of the source.

Assays:
Nphs2^R140Q/− mice [1] = experiment: proteinuria in inducible mouse model of podocin-related nephrotic syndrome; assay type: in vivo
Experimental: We have analyzed results from studies in a transgenic mouse model where the mice were treated with atrasentan. Using the Cre recombinase technology, we generated a novel inducible mouse model of podocin-related nephrotic syndrome. Cross-breeding of animals carrying one foxed podocin construct, one podocin allele with the R140Q mutation, and tamoxifen-sensitive inducible Cre enabled us to induce hemizygosity for the R140Q mutant. In this work, we were able to examine the human missense mutation […] of NPHS2 gene identified in pediatric patients with nephrotic syndrome in vivo in an inducible mouse model of R140Q mutation (murine analogue to the human mutation). […] Furthermore, from the end of the week four of observation the values of plasma urea and creatinine started to increase slightly and the creatinine clearance appeared to reduce, pointing to the beginning of renal failure. Seven animals were treated with 5 mg/kg/d atrasentan and another three animals were treated with the lower dose of 2.5 mg/kg/d atrasentan via food intake for four weeks. Furthermore, we started a new group of 8 animals with a higher dose treatment of 15 mg/kg/d atrasentan. […] Proteinuria (FIG. 1A, FIG. 1B, and FIG. 1D), weight gain and blood pressure (FIG. 1C) were monitored once weekly. All animals were sacrificed at the end of the observation period at week 5 (or week 9 with delayed treatment) and the biochemical parameters (FIG. 3A-E) were determined. All results were compared to two control groups of healthy and sick untreated animals. […] Therefore, we started the treatment after 4 weeks of disease state (5 mg/kg/d) when animals are showing high proteinuria, performing 4-weeks treatment duration (n=14) and 8 weeks treatment duration (n=4), respectively. Proteinuria (FIG. 6), weight gain and blood pressure (FIG. 7) were monitored at least every 2 weeks. All animals were sacrificed at the end of the observation period and biochemical parameters (FIG. 8) as well as histological changes (FIG. 9) were determined consequently. […]

Nphs2^R140Q/− mice [2] = experiment: mean arterial blood pressure in inducible mouse model of podocin-related nephrotic syndrome; assay type: in vivo
Experimental: We have analyzed results from studies in a transgenic mouse model where the mice were treated with atrasentan. Using the Cre recombinase technology, we generated a novel inducible mouse model of podocin-related nephrotic syndrome. Cross-breeding of animals carrying one foxed podocin construct, one podocin allele with the R140Q mutation, and tamoxifen-sensitive inducible Cre enabled us to induce hemizygosity for the R140Q mutant. In this work, we were able to examine the human missense mutation […] of NPHS2 gene identified in pediatric patients with nephrotic syndrome in vivo in an inducible mouse model of R140Q mutation (murine analogue to the human mutation). […] Furthermore, from the end of the week four of observation the values of plasma urea and creatinine started to increase slightly and the creatinine clearance appeared to reduce, pointing to the beginning of renal failure. Seven animals were treated with 5 mg/kg/d atrasentan and another three animals were treated with the lower dose of 2.5 mg/kg/d atrasentan via food intake for four weeks. Furthermore, we started a new group of 8 animals with a higher dose treatment of 15 mg/kg/d atrasentan. […] Proteinuria (FIG. 1A, FIG. 1B, and FIG. 1D), weight gain and blood pressure (FIG. 1C) were monitored once weekly. All animals were sacrificed at the end of the observation period at week 5 (or week 9 with delayed treatment) and the biochemical parameters (FIG. 3A-E) were determined. All results were compared to two control groups of healthy and sick untreated animals. […] Therefore, we started the treatment after 4 weeks of disease state (5 mg/kg/d) when animals are showing high proteinuria, performing 4-weeks treatment duration (n=14) and 8 weeks treatment duration (n=4), respectively. Proteinuria (FIG. 6), weight gain and blood pressure (FIG. 7) were monitored at least every 2 weeks. All animals were sacrificed at the end of the observation period and biochemical parameters (FIG. 8) as well as histological changes (FIG. 9) were determined consequently. All results were compared to control groups of healthy and sick untreated animals.

Nphs2^R140Q/− mice [3] = experiment: kidney histopathology (tubulointerstitial fibrosis, glomerular sclerosis index, podocytes per glomerulus) in the mouse model; assay type: in vivo
Experimental: We have analyzed results from studies in a transgenic mouse model where the mice were treated with atrasentan. Using the Cre recombinase technology, we generated a novel inducible mouse model of podocin-related nephrotic syndrome. Cross-breeding of animals carrying one foxed podocin construct, one podocin allele with the R140Q mutation, and tamoxifen-sensitive inducible Cre enabled us to induce hemizygosity for the R140Q mutant. In this work, we were able to examine the human missense mutation […] of NPHS2 gene identified in pediatric patients with nephrotic syndrome in vivo in an inducible mouse model of R140Q mutation (murine analogue to the human mutation). […] Furthermore, from the end of the week four of observation the values of plasma urea and creatinine started to increase slightly and the creatinine clearance appeared to reduce, pointing to the beginning of renal failure. Proteinuria (FIG. 1A, FIG. 1B, and FIG. 1D), weight gain and blood pressure (FIG. 1C) were monitored once weekly. All animals were sacrificed at the end of the observation period at week 5 (or week 9 with delayed treatment) and the biochemical parameters (FIG. 3A-E) were determined. All results were compared to two control groups of healthy and sick untreated animals. […] Quantification was done with Image ProPremier (glomerular sclerosis index-GSI, 50 glomeruli/animal). […] FIG. 5C tabulates podocyte numbers per glomerulusWT1-via immunostaining of glomerular cross-sections (4 μm and 10 μm). Quantification was done with ImageJ according to Animal Models of Diabetic Complications Consortium protocol. 50 glomeruli/animal. We found no effect on the number of podocytes per glomerulus in treated animals. Proteinuria (FIG. 6), weight gain and blood pressure (FIG. 7) were monitored at least every 2 weeks. All animals were sacrificed at the end of the observation period and biochemical parameters (FIG. 8) as well as histological changes (FIG. 9) were determined consequently. All results were compared to control groups of healthy and sick untreated animals. […] FIG. 9A are exemplary images of healthy, untreated and Atrasentan treated kidney samples.

[4] = test system: Endothelin-1, ETAR and ETBR; experiment: expression of Endothelin-1, ETAR and ETBR (real-time PCR, Western blot) in kidney of the mouse model; assay type: in vivo; conditions: Atrasentan treated animals, Example 2
Experimental: Western blot analysis was performed to confirm the observation of increased mRNA level in the late course of disease (FIG. 11).

podocin = podocin expression analysis (Western blot, qRT-PCR, immunofluorescence) in the mouse model; assay type: in vivo; conditions: treated animals, Example 2
Experimental: Further podocin expression analysis was carried out.

ETA receptor = molecular target: T1, ETA receptor (Homo sapiens, UniProt P25101); conditions: cited from earlier work
T1 sequence (P25101 21-427): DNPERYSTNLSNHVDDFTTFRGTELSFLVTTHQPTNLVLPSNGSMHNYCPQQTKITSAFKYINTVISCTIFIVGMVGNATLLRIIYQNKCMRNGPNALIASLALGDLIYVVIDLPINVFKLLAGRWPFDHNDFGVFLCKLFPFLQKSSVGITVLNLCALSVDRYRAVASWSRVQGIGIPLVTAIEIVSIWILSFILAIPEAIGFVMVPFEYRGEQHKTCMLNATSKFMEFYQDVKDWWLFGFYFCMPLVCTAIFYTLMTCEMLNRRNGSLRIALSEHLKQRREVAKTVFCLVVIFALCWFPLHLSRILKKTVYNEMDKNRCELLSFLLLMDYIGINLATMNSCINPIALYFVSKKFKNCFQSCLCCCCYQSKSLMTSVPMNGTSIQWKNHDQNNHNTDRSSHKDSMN

[5] = delayed treatment, 4 weeks of treatment, compared to sick untreated animals of the same age, Example 2

## CCCCN(CCCC)C(=O)CN1C[C@H](c2ccc3c(c2)OCO3)[C@@H](C(=O)O)[C@@H]1c1ccc(OC)cc1 [atrasentan, (2R,3R,4S)-4-(1,3-Benzodioxol-5-yl)-1-[2-(dibutylamino)-2-oxoethyl]-2-(4-methoxyphenyl)pyrrolidine-3-carboxylic acid]
Nphs2^R140Q/− mice [1]; delayed treatment 5 mg/kg/d after 4 weeks of disease state, Example 2
  proteinuria: reaches a peak and declines afterwards progressively; also recorded: decreased progressively
Nphs2^R140Q/− mice [1]; delayed treatment 5 mg/kg/d started four weeks after induction, n=9, Example 1
  proteinuria: effective attenuation of proteinuria; also recorded: antiproteinuric effect
Nphs2^R140Q/− mice [1]; immediate or prophylactic treatment, 2.5, 5 or 15 mg/kg/d via food, first 4 weeks after induction, Example 1
  proteinuria: no beneficial effect in attenuating proteinuria; also recorded: no antiproteinuric effect
Nphs2^R140Q/− mice [2]; delayed treatment 5 mg/kg/d, compared to untreated animals, Example 1
  blood pressure: lowered blood pressure
Nphs2^R140Q/− mice [2]; delayed treatment (D), wk7, p=0.001 v untreated 99.5
  MAP: 80.4 mmHg
Nphs2^R140Q/− mice [2]; four-week delay, 5 mg/kg/d, compared to untreated animals at week 5 and 7 (p=0.001, p=0.047), Example 2
  blood pressure: significant decrease of blood pressure
Nphs2^R140Q/− mice [2]; prophylactic 2.5 mg/kg/d, compared to untreated and healthy animals, Example 1
  blood pressure: higher blood pressure
Nphs2^R140Q/− mice [2]; prophylactic 5 mg/kg/d, compared to untreated and healthy animals, Example 1
  blood pressure: higher blood pressure
Nphs2^R140Q/− mice [2]; prophylactic 15 mg/kg/d, compared to untreated animals, Example 1
  blood pressure: lower blood pressure
Nphs2^R140Q/− mice [3]; 2.5 mg/kg/d, p<0.05 compared to untreated group, Example 1
  tubulointerstitial fibrosis: reduced area affected by fibrosis
Nphs2^R140Q/− mice [3]; 5 mg/kg/d, p<0.05 compared to untreated group, Example 1
  tubulointerstitial fibrosis: reduced area affected by fibrosis
Nphs2^R140Q/− mice [3]; 15 mg/kg/d, Example 1
  tubulointerstitial fibrosis: increase of tubulointerstial fibrosis
Nphs2^R140Q/− mice [3]; all treatment groups, PAS staining, 50 glomeruli/animal, Example 1
  glomerular sclerosis index (GSI): No improvement
Nphs2^R140Q/− mice [3]; delayed treatment (D), n.s. vs. untreated wk 8 32%
  podocytes per glom: 54 % of healthy controls
Nphs2^R140Q/− mice [3]; delayed treatment (D), n=9, p=0.0008 v untreated wk 8 2.27
  GSI: 1.69
Nphs2^R140Q/− mice [3]; [5]
  glomerulosclerosis: mitigated
  tubulointerstitial fibrosis: mitigated
Nphs2^R140Q/− mice [3]; delayed treatment, 4 weeks of treatment, Example 2
  podocyte population: No notable effects
Nphs2^R140Q/− mice [3]; treated animals, WT1 immunostaining, Example 1
  number of podocytes per glomerulus: no effect
[4]
  ETAR mRNA expression: lower expression
  ETBR mRNA expression: lower expression
  endothelin-1 mRNA expression: lower expression
[4]; Western blot
  protein expression of endothelin-1: decreased protein expression
podocin; Western blot
  Podocin protein abundance: partly preserved
podocin; qRT-PCR
  Podocin mRNA expression: partly preserved
ETA receptor
  relative selectivity for ETA receptor over ETB receptor: greater than 1,800 fold
